The values that follow come from US8617523B2, “Anti-biofilm carbonate compounds for use in oral care compositions” (Colgate-Palmolive Company, priority 2009, dated 2013).

≈ marks a conversion by molar mass, not a printed value.

The first assay deals with A. naeslundii. Put plainly: Minimal Inhibitory Concentration (MIC) anti-microbial test. The format is cell-based. To be noted: Actinomyces naeslundii; single species of A. naeslundii biofilm; read-out: MIC (Minimum Inhibitory Concentration, bactericidal). How it is done: The anti-microbial test was measured according to the SOP No. ATO-5308-00 for determination of Minimal Inhibitory Concenctration (MIC).
In the case of `CC(C)C(O)C(C)(C)COC(=O)OC1CCCC1` (stereo not drawn), the MIC turned out to be 625 µg/mL (≈ 2420 µM).

Turning to `CC(CCCC(C)(C)O)CCOC(=O)Oc1ccccc1` (stereo not drawn), the MIC worked out at 156 µg/mL (≈ 530 µM).

Turning to `CCCCC(CC)COC(=O)OCCCCCCO` (stereo not drawn), the MIC came to 78 µg/mL (≈ 284 µM).

The subject of a further assay is A. naeslundii biofilm. Put plainly: crystal violet assay, anti-biofilm (MBEC). The format is cell-based, Actinomyces naeslundii. To be noted: single species of A. naeslundii biofilm.
With `CC(C)C(O)C(C)(C)COC(=O)OC1CCCC1` (stereo not drawn), the “MBEC (Minimum Biofilm Eradication Concentration, anti-biofilm)” value (“MBEC” for short) was 156 ppm.

For `CC(CCCC(C)(C)O)CCOC(=O)Oc1ccccc1` (stereo not drawn), the “MBEC” value is 78 ppm.

In the case of `CCCCC(CC)COC(=O)OCCCCCCO` (stereo not drawn), the “MBEC” value is 39 ppm.
